# Key:
# healthy male volunteers = conditions: cited from earlier work
# [1] = system: glutamate biomarker in plasma; assay: Example 5: glutamate biomarker in plasma of Rett Syndrome subjects; assay type: in vivo, human; conditions: week 0 vs week 7; Wilcoxon p (2-tailed)=0.046
# Source text: In one aspect, the method further comprises measuring, or having measured or obtained a baseline biomarker level in the subject prior to treatment with ANAVEX2-73 as described herein, wherein the biomarker comprises plasma glutamate, gamma aminobutyric acid (GABA), PI3K, pAkt, mTOR, pMAPK, pERK, or any combinations thereof, and measuring or having measured or obtained at least a second level of the biomarker following a period of treatment with ANAVEX2-73 as described herein. […]
# (§1) For efficacy, the following parameters were measured in the female subjects: Rett Syndrome Behavior Questionare (RSBQ), Clinical Global Impressions (CGI-I), hand behaviors (RSBQ), breathing problems (RSBQ), waking during sleep (RSBQ), and glutamate biomarker, and GABA biomarkers.
# Evaluation of the efficacy was measured as a comparison from baseline (week 0), week 4, and to end of treatment (week 7). Blood plasma samples were analyzed at week 0 and at week 7 to measure the levels of glutamate and GABA biomarkers. […]
# BDNF = conditions: 1 mg/kg IP twice daily for two weeks; cited from earlier work
# pAkt = pAkt levels in peripheral lymphocytes of Fmr1 KO2 mice (flow cytometry); assay type: in vivo
# Procedure: (§2) In the aforementioned study by Reyes et al., ANAVEX2-73 or saline were administered twice daily at a dose of 1 mg/kg IP, to 2-month-old Fmr1 KO2 mice and wild type counterparts (N=10 mice per group, 40 mice total; for blood sample analyses: 5-7 mice per group) for two weeks. Brain samples were harvested for biochemical and molecular studies, blood samples were collected at baseline and on the last day of the behavioral assessments. Complementary cell signaling analyses were also conducted. These analyses were important because of their relevance to both preclinical and clinical research in FXS. Peripheral lymphocytes were isolated and stimulated with Phorbol-12-Myristate-13-Acetate in a buffer without phosphatase inhibitors but with U0126 (inhibitor of MAPK kinase). […] Resuspended cells were analyzed in a Coulter XL3 flow cytometer. […] Levels of pAkt and pERK were first characterized in terms of distribution, by the Shapiro-Wilk test of normality and Levene's and Bartlett's tests, which determined that all data were distributed normally and had equal variances. […] Once a significant difference was found, a two-way univariate ANOVA with genotype and treatment as between-subject factors, followed by a Tukey's post-hoc test, evaluated the differences between drug-treated and vehicle-treated WT and Fmr1 KO2 mice. […]
# [2] = system: subject diagnosed with Rett Syndrome; assay: Example 6: liquid formulation given to a subject with Rett Syndrome; assay type: in vivo, human; conditions: 1 mL of a liquid formulation (0.2 mg/mL)
# Procedure: A subject, diagnosed with Rett Syndrome is administered 1 mL of a liquid formulation (0.2 mg/mL).
# [3] = system: Fmr1 knockout 2 mice, KO2; conditions: 1 mg/kg IP twice daily for two weeks; cited from earlier work
# physchem = assay type: physicochemical
# Source text: Dosage formulations used in the disclosed methods comprise a therapeutically effective amount of ANAVEX2-73, the crystalline HCI salt of tetrahydro-N,N-dimethyl-2,2-diphenyl-3-furanmethanamine, or tetrahydro-N,N-dimethyl-2,2-diphenyl-3-furanmethanamine hydrochloride (IUPAC name: 1-(2,2-diphenyloxolan-3-yl)-A/,A/-dimethylmethanamine hydrochloride). […] Thus ANAVEX2-73 (used herein to refer to the HCI salt or the free base) is highly amenable to incorporation in the dosage formulations disclosed herein. For example, ANAVEX2-73 as either the HCI salt or the free base has a relatively low molecular weight (<400 Da), and is thus well suited for transmucosal or transdermal delivery, or rapid oral delivery. ANAVEX2-73 has a pKa around 8-9, which also makes it well-suited for transmucosal delivery. Therapeutically effective doses of ANAVEX2-73 are well suited for various thin film formulations, including oral and transdermal thin film formulations.
# [4] = system: female subjects diagnosed with Rett Syndrome; assay: Example 5: 7-week daily treatment of Rett Syndrome subjects (RSBQ, CGI-I); assay type: in vivo, human
# Procedure: Six female subjects ranging from 16 to 22 years of age diagnosed with Rett Syndrome were administered 5 mg ANAVEX2-73 liquid formulation (1 m_of a 5 mg/mI_ANAVEX2-73 solution) daily for a total daily dose of […], over a period of 7 weeks.
# as §1
# Evaluation of the efficacy was measured as a comparison from baseline (week 0), week 4, and to end of treatment (week 7). Blood plasma samples were analyzed at week 0 and at week 7 to measure the levels of glutamate and GABA biomarkers. The evaluation of efficacy used a two-tailed statistical analysis.
# pERK = pERK levels in peripheral lymphocytes of Fmr1 KO2 mice (flow cytometry); assay type: in vivo; conditions: 1 mg/kg IP twice daily for two weeks, 7 per group, t-test p=0.046, post-hoc p=0.096
# Procedure: as §2
# [5] = system: subject diagnosed with Rett Syndrome; assay: Example 1: liquid formulation given to a subject with Rett Syndrome; assay type: in vivo, human; conditions: 5 mL of a liquid formulation (0.2 mg/mL)
# Procedure: A subject diagnosed with Rett Syndrome was administered 5 mL of a liquid formulation (0.2 mg/mL).
structure (smiles),measurement,setting,value
"CN(C)CC1CCOC1(c1ccccc1)c1ccccc1.Cl (stereo not drawn) [ANAVEX2-73, tetrahydro-N,N-dimethyl-2,2-diphenyl-3-furanmethanamine hydrochloride]",safety and tolerability,"healthy male volunteers; ascending single oral doses of 1, 10, 30, 40, 50 and 55 mg, healthy subjects",safe and well tolerated
same,observed adverse events,healthy male volunteers; at highest doses,only moderate and reversible dizziness and headache
same,minimum intolerable dose (MID),"healthy male volunteers; human, in vivo, po",60 mg
same,serious adverse events,healthy male volunteers; single ascending oral doses,No serious adverse events occurred
same,maximum tolerable dose (MTD),"healthy male volunteers; single oral dose, based on frequency and intensity of adverse events",55 mg
same,levels of glutamate biomarker in plasma,[1],decreased significantly
same,BDNF levels in the hippocampus,BDNF,normalized
same,"pAkt levels, drug-treated vs vehicle-treated Fmr1 KO2 mice","pAkt; 1 mg/kg IP twice daily for two weeks, 5 animals per group, p=0.01",significantly lower
same,"pAkt levels, drug-treated mutant mice vs vehicle-treated WT mice",pAkt; ANOVA,comparable
same,CGI-I index,[2],improvement
same,Rett Syndrome Behavior Questionnaire (RSBQ),[2],improvement
same,"three neurobehavioral phenotypes (open field test, contextual fear conditioning, marble-burying)",[3],marked improvement or normalization
same,chemical stability,physchem,excellent
same,pKa,physchem,8 to 9
same,solubility in organic solvents,physchem,soluble in almost all organic solvents
same,water solubility,physchem,high
same,RSBQ and CGI-I,"[4]; after 7 weeks, p=0.003",reduction
same,improvement in the RSBQ (total score),"[4]; all six subjects, 5 mg liquid formulation daily, week 0 vs week 7",over 30%
same,breathing problems (RSBQ),"[4]; compared to week 0, p=0.042",improvement
same,hand behaviors (RSBQ),"[4]; compared to week 0, p=0.042",improvement
same,waking during sleep (RSBQ),"[4]; compared to week 0, p=0.042",improvement
same,"pERK levels, drug-treated vs vehicle-treated Fmr1 KO2 mice",pERK,mildly reduced
same,cognition,[5],improvement
same,motor skills,[5],improvement

# Reference: patent US12558340B2, “ANAVEX2-73 for the treatment of genetic neurodevelopmental disorders” (ANAVEX LIFE SCIENCES CORP., priority 2019, dated 2026)
